Assay results: PMC6838110 (Nature Communications, 2019)

Legend:
FaDu ATM KO xenografts = assay: Xenograft efficacy study with olaparib; assay type: in vivo, mice; conditions: continuous olaparib 100 mg kg−1 qd single agent
Procedure: Immunocompromised SCID (C.B-17/IcrHan®Hsd-Prkdc^scid) or Hsd:Athymic Nude-Foxn1^nu female mice (Envigo) were used for tumour implantation. […] When dosed twice daily, the time between the morning and evening doses was 8 h. Targeted irradiation of 2 Gy was delivered over 2 min daily over the first 5 days of treatment. Liposomal doxorubicin (Doxoves) was diluted in physiological saline and intravenously dosed at 2.5 or 5 mg kg^−1 once per week. Olaparib was formulated in 10% DMSO/30% Kleptose and orally dosed at 100 mg kg^−1 once daily. […] Statistical significance was evaluated using a one-tailed t-test. […]
Tumours were measured (length x width) by bilateral Vernier calliper measurements and tumour volume calculated using Mousetrap software. […]
HPMC/T. Tumour growth inhibition from start of treatment was assessed by co mparison of the mean change in tumour volume for the control and treated groups, using the Mousetrap application and represented as tumour growth inhibition (TGI). Statistical significance was evaluated using a one-tailed t-test. […]
was prepared using an appropriate dilution factor and compared against an 11-point standard calibration curve (1–10,000 nM) prepared in DMSO and spiked into bl ank plasma. […] Supernatant (50 µL) was then diluted in 300 µL water and analysed with ultra-performance liquid chromatography–tandem mass […]

HBCx-17 TNBC PDX = assay: PDX efficacy study; assay type: in vivo, mice; conditions: olaparib 100 mg kg−1 qd single agent
Procedure: (§1) Immunocompromised SCID (C.B-17/IcrHan®Hsd-Prkdc^scid) or Hsd:Athymic Nude-Foxn1^nu female mice (Envigo) were used for tumour implantation. […] When dosed twice daily, the time between the morning and evening doses was 8 h. Targeted irradiation of 2 Gy was delivered over 2 min daily over the first 5 days of treatment. Liposomal doxorubicin (Doxoves) was diluted in physiological saline and intravenously dosed at 2.5 or 5 mg kg^−1 once per week. Olaparib was formulated in 10% DMSO/30% Kleptose and orally dosed at 100 mg kg^−1 once daily. […] Statistical significance was evaluated using a one-tailed t-test. All in vivo studies complied with all relevant ethical regulations for animal testing and research, followed AstraZeneca’s global bioethics policy and received ethical approval from the AstraZeneca ethical committee. HBCx-17 PDX study was carried out at XenTech, France in accordance with French regulatory legislation concerning the protection of laboratory animals. CTG-703, CTG-0828 and CTG-0149 PDX studies were carried out at Champions Oncology, Inc., USA in accordance to the guidelines of the Institutional Animal Care and Use Committee (IACUC) of Champions Oncology and the USA regulatory legislation. CDX and OV2022 PDX studies were conducted in the UK in accordance with UK Home Office legislation, the Animal Scientific Procedures Act 1986 and the Home Office project licences 70/8839, 70/8894 and P0EC1FFDF. […]
(§2) SCID mice were surgically implanted subcutaneously with tumour fragments from donor mice. Tumours were measured (length x width) by bilateral Vernier calliper measurements and tumour volume calculated using Mousetrap software. Mice were randomized into […]
treatment groups when mean tumour volume reached ~0.2 cm 3.

FaDu ATM KO cells = assay: Clonogenic survival (colony formation assay); assay type: cell-based; conditions: Homo sapiens
Procedure: (§3) Graphs represent percentage viable cells ± SD following 7 days' treatment relative to DMSO vehicle-treated controls from one representative experiment of at least three independent experiments. […] Mean pGI50 (-log [GI50]) ± SEM, geometric mean GI50, number of experimental repeats (n) and 95% confidence interval are described. C) Colony formation assay was performed on FaDu and A549 ATM KO and WT cells treated with increasing concentrations of olaparib. Graphs represent percentage surviving fraction of colonies ± SD following 10- 14 days' treatment relative to DMSO vehicle-treated control from one representative experiment of three independent experiments. […] Optimized image algorithms were used to evaluate phenotypic response s using nuclear staining with Hoechst (cell cycle, micronuclei, nuclear fragmentation ), as well as to quantify the response of DNA damage response markers (foci numbers and total signal […] SDS-PAGE and Western blotting of samples Protein lysates were generated by scraping cells in radioimmunoprecipitation assay […] and protease and phosphatase inhibitor tablets (Roche) following compound treatments at indicated time points. Protein concentration was determined using the BCA protein assay kit (ThermoFisher). Proteins were separated by SDS -PAGE on NuPAGE® 4-12% […] membranes using the iBlot ® dry blotting system (ThermoFisher). […]

CTG-0828 NSCLC PDX = assay: PDX efficacy study; assay type: in vivo, mice; conditions: olaparib single agent
Procedure: as §1, §2
(§4) treatment groups when mean tumour volume reached ~0.2 cm 3. AZD7648 was formulated in 0.5% hydroxypropyl methylcellulose (HPMC)/0.1% Tween80 (HPMC/T) and orally dosed (4–100 mg/kg). When dosed twice daily (bid), the time between the morning and evening doses was 8 hours. Targeted irradiation of 2 Gy was delivered over 2 minutes daily over the first 5 days of treatment. Liposomal doxorubicin (Doxoves) was diluted in physiological saline and intravenously dosed at 2.5 or 5 mg/kg once per week. Olaparib was formulated in 10% DMSO/30% Kleptose and orally dosed at 100 mg/kg once daily.
(§5) HPMC/T. Tumour growth inhibition from start of treatment was assessed by co mparison of the mean change in tumour volume for the control and treated groups, using the Mousetrap application and represented as tumour growth inhibition (TGI). Statistical significance was evaluated using a one-tailed t-test. HBCx-17 PDX study was carried out at XenTech, France in accordance with French regulatory legislation concerning the protection of laboratory animals. CTG-703, CTG-0828 and CTG-0149 PDX studies were carried out at Champions Oncology, Inc., USA in accordance to the guidelines of the Institutional Animal Care and Use Committee (IACUC) of Champions Oncology and the USA regulatory legislation. CDX and OV2022 PDX studies were conducted in the UK in accordance with UK Home Office legislation, the Animal Scientific Procedures Act 1986, and AstraZeneca’s global bioethics policy. Experimental details are outlined in Home […]
(§6) Blood samples were taken via venipuncture of the tail vein. Whole blood was mixed 1: 5 with PBS and centrifuged at 1500g for 3 minutes at 4°C, and the plasma was extracted […]
(§7) was prepared using an appropriate dilution factor and compared against an 11-point standard calibration curve (1–10,000 nM) prepared in DMSO and spiked into bl ank plasma. Acetonitrile (100 µL) was added with the internal standard, followed by centrifugation at 3000 rpm for 10 minutes. Supernatant (50 µL) was then diluted in 300 µL water and analysed with ultra-performance liquid chromatography–tandem mass […]
(§8) Xenograft sample preparation
(§9) Animals were euthanized and tumour samples snap frozen in liquid nitrogen or fixed in formalin and paraffin embedded for subsequent analysis. Tumour pieces were lysed in […]

OV2022 ovarian PDX = assay: PDX efficacy study; assay type: in vivo, mice; conditions: olaparib single agent
Procedure: as §1, §2, §4, §5, §6, §7, §8, §9

CTG-0149 H&N PDX = assay: PDX efficacy study; assay type: in vivo, mice; conditions: olaparib single agent
Procedure: as §1, §2, §4, §5, §6, §7, §8, §9

CTG-703 ovarian PDX = assay: PDX efficacy study; assay type: in vivo, mice; conditions: olaparib single agent
Procedure: as §1, §2, §4, §5, §6, §7, §8, §9

[1] = test system: FaDu and A549 ATM KO cells; assay: Colony formation assay, olaparib, ATM KO versus WT isogenic pairs; assay type: cell-based, human; conditions: olaparib single agent
Procedure: as §3

Compound: O=C(c1cc(Cc2n[nH]c(=O)c3ccccc23)ccc1F)N1CCN(C(=O)C2CC2)CC1 [olaparib]
- TGI (FaDu ATM KO xenografts): 50%
- tumour regression (HBCx-17 TNBC PDX): 42%
- tumours regressed on day 70 (last day of dosing) (HBCx-17 TNBC PDX): four tumours out of nine
- tumours regressed on day 70 (last day of dosing) (HBCx-17 TNBC PDX; listed as Olaparib): 4/9
- IC50 (FaDu ATM KO cells): ~100 nM
- sensitivity of the model to olaparib (CTG-0828 NSCLC PDX): insensitive
- TGI (OV2022 ovarian PDX): 65%
- sensitivity of the model to olaparib (CTG-0149 H&N PDX): insensitive
- TGI (CTG-703 ovarian PDX): 100%
- greater sensitivity of ATM KO cells compared with isogenic WT cells [1]: > 10 fold
